Experimental data taken from the supplement of paper PMC10307832.

What was measured:
Assay in all cases: relative viability (nuclei count vs DMSO), 5 days (fraction); higher = more cells survive
LU99A = tested on: LU99A
Outline: (§1)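 Relative viability was taken as the ratio of nuclei in treated wells to nuclei in vehicle wells. Lung cancer cell lines in 1536-well plates received compounds by pin tool one day after seeding, either one drug alone or a fixed anchor-drug dose plus five library-drug doses (not always all listed) in √10 steps. Nuclei were counted on 4× images after 5 days of treatment, and values are medians of duplicate plates.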

BEN = tested on: BEN
Outline: as §1

NCI-H1355 = tested on: NCI-H1355
Outline: as §1

SK-MES-1 = tested on: SK-MES-1
Outline: as §1

HCC-78 = tested on: HCC-78
Outline: as §1

NCI-H1975 = tested on: NCI-H1975
Outline: as §1

LK-2 = tested on: LK-2
Outline: as §1

LCLC-97TM1 = tested on: LCLC-97TM1
Outline: as §1

NCI-H596 = tested on: NCI-H596
Outline: as §1

NCI-H1651 = tested on: NCI-H1651
Outline: as §1

NCI-H1666 = tested on: NCI-H1666
Outline: as §1

PC-3 [JPC-3] = tested on: PC-3 [JPC-3]
Outline: as §1

NCI-H661 = tested on: NCI-H661
Outline: as §1

NCI-H358 = tested on: NCI-H358
Outline: as §1

NCI-H650 = tested on: NCI-H650
Outline: as §1

LC-2-ad = tested on: LC-2-ad
Outline: as §1

NCI-H2087 = tested on: NCI-H2087
Outline: as §1

LXF-289 = tested on: LXF-289
Outline: as §1

NCI-H838 = tested on: NCI-H838
Outline: as §1

NCI-H1944 = tested on: NCI-H1944
Outline: as §1

## COc1cc2nccc(Oc3ccc(NC(=O)Nc4cc(C)on4)c(Cl)c3)c2cc1OC [Tivozanib] + C[C@]1(O)C[C@@H](c2nc(-c3ccc4ccc(-c5ccccc5)nc4c3)c3c(N)nccn32)C1 [Linsitinib] (partner 1 µM)
LU99A; first compound 0.005 µM
  relative viability: 0.517
LU99A; first compound 0.01581 µM
  relative viability: 0.506
LU99A; first compound 0.05 µM
  relative viability: 0.581
LU99A; first compound 0.5 µM
  relative viability: 0.534
BEN; first compound 0.005 µM
  relative viability: 0.995
BEN; first compound 0.01581 µM
  relative viability: 0.871
BEN; first compound 0.05 µM
  relative viability: 0.984
BEN; first compound 0.5 µM
  relative viability: 0.912
NCI-H1355; first compound 0.005 µM
  relative viability: 0.776
NCI-H1355; first compound 0.01581 µM
  relative viability: 0.809
NCI-H1355; first compound 0.05 µM
  relative viability: 0.895
NCI-H1355; first compound 0.5 µM
  relative viability: 0.844
SK-MES-1; first compound 0.005 µM
  relative viability: 1.08
SK-MES-1; first compound 0.01581 µM
  relative viability: 1.07
SK-MES-1; first compound 0.05 µM
  relative viability: 1.05
SK-MES-1; first compound 0.1581 µM
  relative viability: 1.14
SK-MES-1; first compound 0.5 µM
  relative viability: 1.07
HCC-78; first compound 0.005 µM
  relative viability: 0.53
HCC-78; first compound 0.01581 µM
  relative viability: 0.492
HCC-78; first compound 0.05 µM
  relative viability: 0.437
HCC-78; first compound 0.1581 µM
  relative viability: 0.415
HCC-78; first compound 0.5 µM
  relative viability: 0.451
NCI-H1975; first compound 0.005 µM
  relative viability: 0.976
NCI-H1975; first compound 0.01581 µM
  relative viability: 0.893
NCI-H1975; first compound 0.05 µM
  relative viability: 0.956
NCI-H1975; first compound 0.1581 µM
  relative viability: 0.784
NCI-H1975; first compound 0.5 µM
  relative viability: 0.916
LK-2; first compound 0.005 µM
  relative viability: 0.521
LK-2; first compound 0.01581 µM
  relative viability: 0.616
LK-2; first compound 0.05 µM
  relative viability: 0.49
LK-2; first compound 0.1581 µM
  relative viability: 0.601
LK-2; first compound 0.5 µM
  relative viability: 0.393
LCLC-97TM1; first compound 0.005 µM
  relative viability: 0.154
LCLC-97TM1; first compound 0.01581 µM
  relative viability: 0.179
LCLC-97TM1; first compound 0.1581 µM
  relative viability: 0.187
LCLC-97TM1; first compound 0.5 µM
  relative viability: 0.178
NCI-H596; first compound 0.005 µM
  relative viability: 1.1
NCI-H596; first compound 0.01581 µM
  relative viability: 1.03
NCI-H596; first compound 0.05 µM
  relative viability: 0.953
NCI-H596; first compound 0.1581 µM
  relative viability: 0.952
NCI-H596; first compound 0.5 µM
  relative viability: 1.01
NCI-H1651; first compound 0.005 µM
  relative viability: 0.929
NCI-H1651; first compound 0.01581 µM
  relative viability: 0.988
NCI-H1651; first compound 0.05 µM
  relative viability: 0.87
NCI-H1651; first compound 0.1581 µM
  relative viability: 0.949
NCI-H1651; first compound 0.5 µM
  relative viability: 0.963
NCI-H1666; first compound 0.005 µM
  relative viability: 0.748
NCI-H1666; first compound 0.01581 µM
  relative viability: 0.856
NCI-H1666; first compound 0.05 µM
  relative viability: 0.975
NCI-H1666; first compound 0.1581 µM
  relative viability: 0.783
NCI-H1666; first compound 0.5 µM
  relative viability: 0.876
PC-3 [JPC-3]; first compound 0.005 µM
  relative viability: 0.903
PC-3 [JPC-3]; first compound 0.01581 µM
  relative viability: 0.921
PC-3 [JPC-3]; first compound 0.05 µM
  relative viability: 1
PC-3 [JPC-3]; first compound 0.1581 µM
  relative viability: 1.01
PC-3 [JPC-3]; first compound 0.5 µM
  relative viability: 0.915
NCI-H661; first compound 0.005 µM
  relative viability: 0.525
NCI-H661; first compound 0.01581 µM
  relative viability: 0.564
NCI-H661; first compound 0.05 µM
  relative viability: 0.498
NCI-H661; first compound 0.1581 µM
  relative viability: 0.707
NCI-H661; first compound 0.5 µM
  relative viability: 0.652
NCI-H358; first compound 0.005 µM
  relative viability: 0.765
NCI-H358; first compound 0.01581 µM
  relative viability: 0.849
NCI-H358; first compound 0.05 µM
  relative viability: 0.718
NCI-H358; first compound 0.1581 µM
  relative viability: 0.695
NCI-H358; first compound 0.5 µM
  relative viability: 0.782
NCI-H650; first compound 0.005 µM
  relative viability: 0.671
NCI-H650; first compound 0.01581 µM
  relative viability: 0.992
NCI-H650; first compound 0.05 µM
  relative viability: 0.859
NCI-H650; first compound 0.1581 µM
  relative viability: 0.736
NCI-H650; first compound 0.5 µM
  relative viability: 0.542
LC-2-ad; first compound 0.005 µM
  relative viability: 0.86
LC-2-ad; first compound 0.01581 µM
  relative viability: 0.791
LC-2-ad; first compound 0.05 µM
  relative viability: 0.73
LC-2-ad; first compound 0.1581 µM
  relative viability: 0.526
LC-2-ad; first compound 0.5 µM
  relative viability: 0.616
NCI-H2087; first compound 0.005 µM
  relative viability: 0.928
NCI-H2087; first compound 0.01581 µM
  relative viability: 0.922
NCI-H2087; first compound 0.05 µM
  relative viability: 0.926
NCI-H2087; first compound 0.1581 µM
  relative viability: 1.04
NCI-H2087; first compound 0.5 µM
  relative viability: 0.81
LXF-289; first compound 0.005 µM
  relative viability: 0.974
LXF-289; first compound 0.01581 µM
  relative viability: 0.929
LXF-289; first compound 0.05 µM
  relative viability: 0.945
LXF-289; first compound 0.1581 µM
  relative viability: 1.02
LXF-289; first compound 0.5 µM
  relative viability: 0.983
NCI-H838; first compound 0.005 µM
  relative viability: 0.963
NCI-H838; first compound 0.01581 µM
  relative viability: 1.04
NCI-H838; first compound 0.05 µM
  relative viability: 1.11
NCI-H838; first compound 0.5 µM
  relative viability: 0.942
NCI-H1944; first compound 0.005 µM
  relative viability: 1.14
NCI-H1944; first compound 0.01581 µM
  relative viability: 1.2
NCI-H1944; first compound 0.05 µM
  relative viability: 1.29
NCI-H1944; first compound 0.1581 µM
  relative viability: 1.1
NCI-H1944; first compound 0.5 µM
  relative viability: 1.21
